Experimental data published in paper PMC2787699 (Biochemistry, 2009).

Target: T1, TalrD/GalrD (Salmonella enterica, UniProt Q8ZL58)
T1 sequence (Q8ZL58 1-398): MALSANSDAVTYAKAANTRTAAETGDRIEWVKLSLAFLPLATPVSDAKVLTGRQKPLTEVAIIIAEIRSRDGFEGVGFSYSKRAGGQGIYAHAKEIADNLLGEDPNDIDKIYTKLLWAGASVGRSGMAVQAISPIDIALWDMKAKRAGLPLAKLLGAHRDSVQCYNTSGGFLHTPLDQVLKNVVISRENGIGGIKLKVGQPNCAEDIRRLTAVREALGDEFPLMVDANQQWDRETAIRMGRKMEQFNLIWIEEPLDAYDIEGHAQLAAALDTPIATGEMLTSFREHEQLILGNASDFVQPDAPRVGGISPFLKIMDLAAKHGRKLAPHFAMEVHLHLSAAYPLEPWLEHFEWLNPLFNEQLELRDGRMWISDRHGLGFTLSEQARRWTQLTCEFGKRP
Test: polarimetry at […] nm, product formation
Format: biochemical
Conditions: 10 mM galactarate, 50 mM Hepes pH 8.0, 5 mM MgCl2, room temperature

## O=C(O)[C@@H](O)[C@H](O)[C@H](O)[C@@H](O)C(=O)O [galactarate]
  polarimetry at 589 nm, product formation: TalrD/GalrD produces a product with a positive rotation
